Legend:
[1] = target: T1, hERG channel (Homo sapiens, UniProt Q12809); test: hERG channel inhibition assay (patch-clamp, CHOhERG cells); assay type: cell-based; settings: for IC50 / IC20: CHOhERG cells, whole-cell patch-clamp; for IC20: human, CHO cells stably expressing hERG (CHOhERG); for hERG IC20/TLR7 IC50 / hERG IC20/TLR8 IC50 / hERG IC20/TLR9 IC50: safety ratio; for hERG IC20/TLR7 IC50: hERG IC20 over HEK/hTLR7 IC50; for hERG IC20/TLR8 IC50: hERG IC20 over HEK/hTLR8 IC50; for hERG IC20/TLR9 IC50: hERG IC20 over HEK/hTLR9 IC50
T1 construct: expressed in transfected cells; host or cells: CHO (CHOhERG)
Description: The hERG K^+ channels were cloned in humans and stably expressed in a CHO (Chinese hamster ovary) cell line. CHOhERG cells were used for patch-clamp (voltage-clamp, whole-cell) experiments. Cells were stimulated by a voltage pattern to activate hERG channels and conduct IKhERG currents (rapid delayed outward rectifier potassium current of the hERG channel). After the cells were stabilized for a few minutes, the amplitude and kinetics of IKhERG were recorded at a stimulation frequency of 0.1 Hz (6 bpm). Thereafter, the test compound was added to the preparation at increasing concentrations. For each concentration, an attempt was made to reach a steady-state effect, usually, this was achieved within 3-10 min at which time the next highest concentration was applied. The amplitude and kinetics of IKhERG are recorded in each concentration of the drug which were compared to the control values (taken as 100%). (references: Redfern W S, Carlsson L, Davis A S, Lynch W G, MacKenzie I, Palethorpe S, Siegl P K, Strang I, Sullivan A T, Wallis R, Camm A J, Hammond T G. 2003; Relationships between preclinical cardiac electrophysiology, clinical QT interval prolongation and torsade de pointes for a broad range of drugs: evidence for a provisional safety margin in drug development. Cardiovasc. Res. 58:32-45, Sanguinetti MC, Tristani-Firouzi M. 2006; hERG potassium channels and cardiac arrhythmia. Nature 440:463-469, Webster R, Leishman D, Walker D. 2002; Towards a drug concentration effect relationship for QT prolongation and torsades de pointes. Curr. Opin. Drug Discov. Devel. 5:116-26).

[2] = target: T2, TLR9 (Homo sapiens, UniProt Q9NR96); test: HEK293-Blue-hTLR-9 cells assay (SEAP reporter, ODN2006 stimulation); assay type: cell-based; design: host or cells: HEK293 (HEK-Blue hTLR9); settings: HEK293-Blue-hTLR9 cells, ODN2006, 20 hrs; read-out: HEK/hTLR9 IC50
T2 sequence (Q9NR96 26-1032): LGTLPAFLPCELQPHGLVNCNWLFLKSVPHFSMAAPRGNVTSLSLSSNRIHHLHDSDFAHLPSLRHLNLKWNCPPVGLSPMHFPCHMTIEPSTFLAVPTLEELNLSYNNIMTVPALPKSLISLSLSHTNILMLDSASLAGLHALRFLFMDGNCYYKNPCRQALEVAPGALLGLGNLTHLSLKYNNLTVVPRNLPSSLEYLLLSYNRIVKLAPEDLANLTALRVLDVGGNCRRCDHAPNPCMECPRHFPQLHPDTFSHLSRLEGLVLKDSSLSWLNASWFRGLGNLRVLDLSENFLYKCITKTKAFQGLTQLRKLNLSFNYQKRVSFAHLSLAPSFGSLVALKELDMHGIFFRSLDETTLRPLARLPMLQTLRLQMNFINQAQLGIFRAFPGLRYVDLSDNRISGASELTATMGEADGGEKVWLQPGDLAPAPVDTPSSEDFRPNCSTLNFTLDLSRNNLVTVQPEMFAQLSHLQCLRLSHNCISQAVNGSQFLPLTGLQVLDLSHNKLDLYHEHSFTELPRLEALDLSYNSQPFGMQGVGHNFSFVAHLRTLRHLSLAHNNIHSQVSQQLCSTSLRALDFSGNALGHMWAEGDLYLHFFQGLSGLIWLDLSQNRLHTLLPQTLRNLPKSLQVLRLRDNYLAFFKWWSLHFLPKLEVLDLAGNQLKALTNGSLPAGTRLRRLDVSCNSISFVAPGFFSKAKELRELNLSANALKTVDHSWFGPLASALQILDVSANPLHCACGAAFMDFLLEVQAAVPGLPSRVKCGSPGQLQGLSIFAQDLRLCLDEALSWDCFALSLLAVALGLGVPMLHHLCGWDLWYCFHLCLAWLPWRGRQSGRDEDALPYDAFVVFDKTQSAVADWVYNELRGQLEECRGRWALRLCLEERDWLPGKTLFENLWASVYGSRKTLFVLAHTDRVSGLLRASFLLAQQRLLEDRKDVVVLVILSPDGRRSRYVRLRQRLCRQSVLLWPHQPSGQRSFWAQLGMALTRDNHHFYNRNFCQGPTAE
How it was run: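 Antagonist format: cells in DMEM/10% FBS exposed to serially diluted compound (1% DMSO) plus ODN2006 stimulation for 20 h at 37°C. Supernatant SEAP measured with QUANTI-Blue substrate, 2 h at 37°C, absorbance 620–655 nm.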

T1 sequence (Q12809 whole entry): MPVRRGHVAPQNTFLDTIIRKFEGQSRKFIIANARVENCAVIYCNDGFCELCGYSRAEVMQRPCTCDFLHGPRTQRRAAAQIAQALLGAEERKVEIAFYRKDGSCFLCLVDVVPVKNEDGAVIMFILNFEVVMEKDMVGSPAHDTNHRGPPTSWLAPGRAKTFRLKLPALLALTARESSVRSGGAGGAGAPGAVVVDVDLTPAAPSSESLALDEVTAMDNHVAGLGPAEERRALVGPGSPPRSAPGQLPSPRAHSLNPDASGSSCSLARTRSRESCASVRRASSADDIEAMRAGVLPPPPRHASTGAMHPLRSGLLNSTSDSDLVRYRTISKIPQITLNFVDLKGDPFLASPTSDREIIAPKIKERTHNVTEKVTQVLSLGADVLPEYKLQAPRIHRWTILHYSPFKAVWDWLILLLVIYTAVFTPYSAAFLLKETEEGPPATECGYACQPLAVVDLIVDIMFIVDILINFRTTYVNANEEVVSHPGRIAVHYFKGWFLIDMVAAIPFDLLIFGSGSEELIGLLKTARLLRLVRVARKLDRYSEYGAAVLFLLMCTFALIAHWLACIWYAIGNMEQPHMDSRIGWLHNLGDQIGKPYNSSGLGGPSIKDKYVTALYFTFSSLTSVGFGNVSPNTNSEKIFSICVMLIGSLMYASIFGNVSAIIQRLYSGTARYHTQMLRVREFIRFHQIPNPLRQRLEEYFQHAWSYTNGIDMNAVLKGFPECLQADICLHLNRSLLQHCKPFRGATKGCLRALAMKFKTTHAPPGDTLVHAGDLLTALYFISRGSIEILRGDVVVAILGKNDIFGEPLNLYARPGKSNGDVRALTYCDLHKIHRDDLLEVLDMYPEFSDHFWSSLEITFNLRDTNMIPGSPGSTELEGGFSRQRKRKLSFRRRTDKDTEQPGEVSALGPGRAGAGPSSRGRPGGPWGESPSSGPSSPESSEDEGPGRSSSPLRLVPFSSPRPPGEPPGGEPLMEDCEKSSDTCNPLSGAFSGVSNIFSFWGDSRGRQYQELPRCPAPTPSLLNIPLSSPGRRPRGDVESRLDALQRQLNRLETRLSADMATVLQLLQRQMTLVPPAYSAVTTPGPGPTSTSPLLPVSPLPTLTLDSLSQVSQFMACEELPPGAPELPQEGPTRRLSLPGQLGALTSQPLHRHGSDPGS

SMILES | IC50 [1] | IC20 [1] | hERG IC20/TLR7 IC50 [1] | hERG IC20/TLR8 IC50 [1] | hERG IC20/TLR9 IC50 [1] | IC50 [2]
Cc1cc(N2Cc3ccc(OC[C@H]4CNCCN4)cc3[C@@H](C)C2)c2cnn(C)c2n1 [Example 30, (4R)-2-(1,6-dimethylpyrazolo[3,4-b]pyridin-4-yl)-4-methyl-6-[[(2R)-piperazin-2-yl]methoxy]-3,4-dihydro-1H-isoquinoline] | > 20 µM | 6.5 µM | 175.7 | 3250.0 | 73.9 | 0.088 µM
C[C@H]1CN(c2ccnc3c2cnn3C)Cc2ccc(OC[C@@H]3CNCCN3C)cc21 [Example 44, (4R)-4-methyl-2-(1-methylpyrazolo[3,4-b]pyridin-4-yl)-6-[[(2S)-1-methylpiperazin-2-yl]methoxy]-3,4-dihydro-1H-isoquinoline] | > 20 µM | > 10 µM | >666.7 | >2000.0 | >42.7 | 0.234 µM
Cc1cc(N2Cc3ccc(OC[C@@H]4CNCCN4)cc3[C@@H](C)C2)c2cnn(C)c2n1 [Example 31, (4R)-2-(1,6-dimethylpyrazolo[3,4-b]pyridin-4-yl)-4-methyl-6-[[(2S)-piperazin-2-yl]methoxy]-3,4-dihydro-1H-isoquinoline] | > 20 µM | 8.5 µM | 354.2 | 4250.0 | 81.0 | 0.105 µM
Cc1cc(N2Cc3cnc(N4CC[C@@H](N)[C@H](F)C4)cc3[C@@H](C)C2)c2cnn(C)c2n1 [Example 80, (3R,4R)-3-fluoro-1-[(5R)-7-(1,6-dimethylpyrazolo[3,4-b]pyridin-4-yl)-5-methyl-6,8-dihydro-5H-2,7-naphthyridin-3-yl]piperidin-4-amine] | > 20 µM | > 10 µM | >833.3 | >294.1 | >137.0 | 0.073 µM
C[C@H]1CN(c2ccnc3c2cnn3C)Cc2ccc(N3CC4(CNC4)CC3=O)cc21 [Example 34, 6-[(4R)-4-methyl-2-(1-methylpyrazolo[3,4-b]pyridin-4-yl)-3,4-dihydro-1H-isoquinolin-6-yl]-2,6-diazaspiro[3.4]octan-7-one] | > 20 µM | > 10 µM | >384.6 | >384.6 | >50.5 | 0.198 µM
Cc1cc(N2Cc3cnc(O[C@@H]4C[C@H]5CNCCN5C4)cc3[C@@H](C)C2)c2cnn(C)c2n1 [Example 76, (4R)-2-(1,6-dimethylpyrazolo[3,4-b]pyridin-4-yl)-4-methyl-6-[[(7R,8aS)-1,2,3,4,6,7,8,8a-octahydropyrrolo[1,2-a]pyrazin-7-yl]oxy]-3,4-dihydro-1H-2,7-naphthyridine] | > 20 µM | > 10 µM | >526.3 | >625.0 | >69.4 | 0.144 µM
Cc1cc(N2Cc3cnc(OCCN4CCNCC4)cc3[C@@H](C)C2)c2cnn(C)c2n1 [Example 77, (4R)-2-(1,6-dimethylpyrazolo[3,4-b]pyridin-4-yl)-4-methyl-6-(2-piperazin-1-ylethoxy)-3,4-dihydro-1H-2,7-naphthyridine] | > 20 µM | > 10 µM | >526.3 | >625.0 | >69.4 | 0.144 µM
C[C@H]1CN(c2ccnc3c2cnn3C)Cc2ccc(OC3CN(C4CCNCC4)C3)cc21 [Example 41, (4R)-4-methyl-2-(1-methylpyrazolo[3,4-b]pyridin-4-yl)-6-[1-(4-piperidyl)azetidin-3-yl]oxy-3,4-dihydro-1H-isoquinoline] | > 20 µM | 5.1 µM | 728.6 | 637.5 | 108.5 | 0.047 µM
C[C@H]1CN(c2ccnc3c2cnn3C)Cc2ccc(N3CC4(CCNCC4)CC3=O)cc21 [Example 16, 2-[(4R)-4-methyl-2-(1-methylpyrazolo[3,4-b]pyridin-4-yl)-3,4-dihydro-1H-isoquinolin-6-yl]-2,8-diazaspiro[4.5]decan-3-one] | > 20 µM | > 10 µM | >2000.0 | >2500.0 | >158.7 | 0.063 µM
C[C@H]1CN(c2ccnc3c2cnn3C)Cc2ccc(O[C@@H]3C[C@H]4CNCCN4C3)cc21 [Example 42, (4R)-4-methyl-2-(1-methylpyrazolo[3,4-b]pyridin-4-yl)-6-[[(7R,8aS)-1,2,3,4,6,7,8,8a-octahydropyrrolo[1,2-a]pyrazin-7-yl]oxy]-3,4-dihydro-1H-isoquinoline] | > 20 µM | > 10 µM | >3333.3 | >5000.0 | >25.1 | 0.398 µM
C[C@H]1CN(c2ccnc3c2cnn3C)Cc2ccc(OCCN3CCNCC3)cc21 [Example 40, (4R)-4-methyl-2-(1-methylpyrazolo[3,4-b]pyridin-4-yl)-6-(2-piperazin-1-ylethoxy)-3,4-dihydro-1H-isoquinoline] | > 20 µM | > 10 µM | >1250.0 | >1428.6 | >30.7 | 0.326 µM
CO[C@H]1CN(c2cc3c(cn2)CN(c2cc(C)nc4c2cnn4C)C[C@@H]3C)CC[C@@H]1N [Example 73, (3S,4S)-3-methoxy-1-[(5R)-7-(1,6-dimethylpyrazolo[3,4-b]pyridin-4-yl)-5-methyl-6,8-dihydro-5H-2,7-naphthyridin-3-yl]piperidin-4-amine] | > 20 µM | 6.9 µM | 1725.0 | 3450.0 | 60.0 | 0.115 µM
C[C@H]1CN(c2ccnc3c2cnn3C)Cc2ccc(N3CC4(CNCCO4)C3)cc21 [Example 21, 2-[(4R)-4-methyl-2-(1-methylpyrazolo[3,4-b]pyridin-4-yl)-3,4-dihydro-1H-isoquinolin-6-yl]-5-oxa-2,8-diazaspiro[3.5]nonane] | > 20 µM | > 10 µM | >1428.6 | >714.3 | >26.9 | 0.372 µM
C[C@H]1CN(c2ccnc3c2cnn3C)Cc2ccc(OC[C@H]3CNCCN3)cc21 [Example 18, (4R)-4-methyl-2-(1-methylpyrazolo[3,4-b]pyridin-4-yl)-6-[[(2R)-piperazin-2-yl]methoxy]-3,4-dihydro-1H-isoquinoline] | > 20 µM | > 10 µM | >1250.0 | >2500.0 | >90.1 | 0.111 µM

Source: US20240317735A1, “HYDROISOQUINOLINE OR HYDRONAPHTHYRIDINE COMPOUNDS FOR THE TREATMENT OF AUTOIMMUNE DISEASE” (Hoffmann-La Roche Inc., priority 2020, published 2024)
